Data published in PubChem BioAssay AID1845203 (Molecular Pharmacology Branch, DTP, NCI, 2023).

Tested on: G-401 tumor spheroids, viability % test/control
Test: Anticancer human tumor G-401 cell line growth inhibition;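 note: spheroids exposed to compound for 7 days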;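 for viability, T/C: 100% = DMSO vehicle-treated spheroids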
Conditions: spheroids with HUVEC and MSC; for IC50: curve of first compound; for viability, T/C: stronger effect = lower value; active = viability on the fitted dose curve at most 10% of control; inactive = the rest
Excerpt: Multicellular complex tumor spheroid response to DNA repair inhibitors in combination with DNA-damaging drugs
This study explores the anticancer activities of DNA-damaging drugs and inhibitors of DNA damage repair, both as single agents and in combinations. Complex tumor spheroids comprised of malignant cells, endothelial cells and mesenchymal stem cells served as an in vitro model for human solid tumors. This model system incorporates physiologically relevant features and patient-derived or established malignant cell lines with clinically relevant genetic alterations from many tumor types. Twenty-six patient-derived or established malignant cell lines were evaluated representing sarcoma, melanoma, small cell lung cancer (SCLC), non-small cell lung cancer (NSCLC), as well as bladder, ovarian and pancreatic cancers. The concentration ranges selected for each drug and investigational agent were based upon clinically achievable concentrations if the clinical Cmax of the agent was known.
Compounds. The drugs and compounds olaparib (NSC753686), talazoparib (NSC767125), berzosertib (NSC777718), elimusertib (NSC800525), nedisertib (NSC802822), VX-984 (NSC792969), AZD-1390 (NSC803789), temozolomide (NSC362856), topotecan (NSC609699), trabectedin (NSC813783), staurosporine (NSC755774), and gemcitabine (NSC613327) were obtained from the National Cancer Institute (NCI) Developmental Therapeutics Program Chemical Repository. The FDA-approved anticancer drug set is available from the Developmental Therapeutics Program at https://dtp.cancer.gov/organization/dscb/obtaining/available_plates.htm. […] The stock solutions were prepared in dimethyl sulfoxide (DMSO, Sigma-Aldrich, St. Louis, MO, cat. D2650) at 400-fold the tested concentration and stored at -70 degrees C. Prior to their use, the stock solutions were diluted in fresh medium and the final DMSO concentration in the assay was 0.25% (v/v). All drugs and investigational agents were tested over a range starting from a high concentration at or near the clinical Cmax and decreasing in half-log increments. If the clinical Cmax for an agent had not been determined, the highest concentration tested was 10 microM.
Cell Lines. The patient-derived cancer cell (PDC) lines: 156681-154-R-J1-PDC, 283228-195-R-J1-PDC, 287954-098-R-J1-PDC, 292921-168-R-J2-PDC, 349418-098-R-PDC, 425362-245-T-J1-PDC, 556581-035-R-J1-PDC, and BL0293-F563-PDC were received from the NCI Patient-Derived Models Repository (PDMR, https://pdmr.cancer.gov). The established cell lines HS-SY-2 (RRID:CVCL_8719), MPNST, and SYO-1 (RRID:CVCL_7146) were obtained from the Sloan Kettering Institute. The alveolar soft parts sarcoma cell line ASPS-1 (RRID:CVCL_S738) was established at the NCI and grown from internal seed stocks. The following established cell lines were purchased from the American Type Culture Collection (ATCC, Manassas, VA): G-401 (ATCC, cat. CRL-1441, RRID:CVCL_0270), SW982 (ATCC, cat. HTB-93, RRID:CVCL_1734), VA-ES-BJ (ATCC, cat. CRL-2138, RRID:CVCL_1785), NCI-H719 (ATCC, cat. CRL-5837, RRID:CVCL_1582), NCI-H196 (ATCC, cat. CRL-5823, RRID:CVCL_1509), NCI-H841 (ATCC, cat. CRL-5845, RRID:CVCL_1595), NCI-H1618 (ATCC, cat. CRL-5879, RRID:CVCL_1480), NCI-H1876 (ATCC, cat. CRL-5902, RRID:CVCL_1503), DMS 114 (ATCC, cat. CRL-2066; RRID:CVCL_1174), NCI-H211 (ATCC, cat. CRL-5824; RRID:CVCL_1529), and SW 1271 (ATCC, cat. CRL-2177, RRID:CVCL_1716). The small cell lung cancer cell line COR-L88 was purchased from Sigma-Aldrich (cat. 92031917-1VL, RRID:CVCL_1141). The non-small cell lung cancer cell lines NCI-H226 (RRID:CVCL_1544) and NCI-H322M (RRID:CVCL_1557) were established at the NCI and grown from internal seed stocks. Pooled donor human umbilical vein endothelial cells (HUVEC, Lonza, cat. CC-2519) and human mesenchymal stem cells (hMSC, Lonza, cat. PT-2501) were purchased from Lonza (Walkersville, MD).
Cell Culture. All cells were maintained in an incubator at 37 degrees C and 5% CO2 with 95% humidity. […]

Cc1sc2c(c1C)C(c1ccc(Cl)cc1)=NC(CC(=O)Nc1ccc(O)cc1)c1nnc(C)n1-2 (stereo not given) + CC[C@@]1(O)C(=O)OCc2c1cc1n(c2=O)Cc2cc3c(CN(C)C)c(O)ccc3nc2-1
< 9.49 nM: IC50 (second compound 0.00949 µM) | IC50 (second compound 0.03 µM) | IC50 (second compound 0.0949 µM) | IC50 (second compound 0.3 µM)
inactive: viability, T/C (second compound 0.003 µM, first compound 0.00949 µM) 72% | viability, T/C (second compound 0.003 µM, first compound 0.03 µM) 57.4% | viability, T/C (second compound 0.003 µM, first compound 0.0949 µM) 38.5% | viability, T/C (second compound 0.003 µM, first compound 0.3 µM) 25.3% | viability, T/C (second compound 0.003 µM, first compound 0.949 µM) 15.4% | viability, T/C (second compound 0.00949 µM, first compound 0.00949 µM) 38.3% | viability, T/C (second compound 0.00949 µM, first compound 0.03 µM) 40.3% | viability, T/C (second compound 0.00949 µM, first compound 0.0949 µM) 22.1% | viability, T/C (second compound 0.00949 µM, first compound 0.3 µM) 17% | viability, T/C (second compound 0.03 µM, first compound 0.00949 µM) 13.9% | viability, T/C (second compound 0.03 µM, first compound 0.03 µM) 11.6%
active: viability, T/C (second compound 0.003 µM, first compound 3 µM) 6.8% | viability, T/C (second compound 0.00949 µM, first compound 0.949 µM) 6.36% | viability, T/C (second compound 0.00949 µM, first compound 3 µM) 3.51% | viability, T/C (second compound 0.03 µM, first compound 0.0949 µM) 9.1% | viability, T/C (second compound 0.03 µM, first compound 0.3 µM) 6.33% | viability, T/C (second compound 0.03 µM, first compound 0.949 µM) 3.18% | viability, T/C (second compound 0.03 µM, first compound 3 µM) 1.34% | viability, T/C (second compound 0.0949 µM, first compound 0.00949 µM) 7.96% | viability, T/C (second compound 0.0949 µM, first compound 0.03 µM) 5.07% | viability, T/C (second compound 0.0949 µM, first compound 0.0949 µM) 4.63% | viability, T/C (second compound 0.0949 µM, first compound 0.3 µM) 2.93% | viability, T/C (second compound 0.0949 µM, first compound 0.949 µM) 1.21% | viability, T/C (second compound 0.0949 µM, first compound 3 µM) 0.82% | viability, T/C (second compound 0.3 µM, first compound 0.00949 µM) 4.4% | viability, T/C (second compound 0.3 µM, first compound 0.03 µM) 3.79% | viability, T/C (second compound 0.3 µM, first compound 0.0949 µM) 3.23% | viability, T/C (second compound 0.3 µM, first compound 0.3 µM) 1.9% | viability, T/C (second compound 0.3 µM, first compound 0.949 µM) 1.03% | viability, T/C (second compound 0.3 µM, first compound 3 µM) 0.5%
46.5 nM: IC50 (second compound 0.003 µM)
